# Like-named read-outs stand apart in the source and are kept apart here.
# How the values were obtained:
# [1] = tested on: serum uric acid; assay: Determination of oral administration: lowering of serum uric acid in mice; type: in vivo, ICR male mice; settings: Mus musculus, read-out: Activity of lowering uric acid
# Procedure: Test compounds suspended in a 5% gum arabic solution was forcibly administered by oral administration (compounds of Ex. No. of Table 2, dose: 1 mg/kg) to ICR male mice (age: about 7 weeks) (one group: 6 mice) by means of an oral probe. 2 hours after the administration, thoracotomy was conducted under etherization to collect blood from the heart, and serum was removed by a conventional process. The serum uric acid was measured by a biochemical automatic analyzer (Flexigem; Electro-Nucleonics, Inc.) by using a uric acid measurement kit (UA reagent; International Reagent) to determine the percentage of the lowering of uric acid. [formula]
# [2] = biological target: T1, xanthine oxidase (Bos taurus, UniProt P80457); assay: In vitro determination of xanthine oxidase (XOD) inhibition; type: biochemical; settings: xanthine oxidase from butter milk, xanthine substrate, pH 7.4, 37° C.
# T1 construct: purchased Sigma Chemical Company; host or cells: butter milk
# Procedure: (1) Preparation of test compounds:
# Test compounds (compounds of Ex. No. listed in Table 1) were dissolved in dimethylsulfoxide and diluted with a 50 mM phosphate buffer to prepare aqueous solutions respectively having predetermined concentrations.
# The inhibition rate was determined by the following equation: [formula]
# The inhibition (%) was determined on each test compound prepared according to (1), and the IC50 value on the xanthine oxidase (XOD) inhibition was calculated from the value of inhibition.
# [3] = ICR male mice, oral, 1 mg/kg, 2 hours after administration, serum
# T1 sequence (P80457 whole entry): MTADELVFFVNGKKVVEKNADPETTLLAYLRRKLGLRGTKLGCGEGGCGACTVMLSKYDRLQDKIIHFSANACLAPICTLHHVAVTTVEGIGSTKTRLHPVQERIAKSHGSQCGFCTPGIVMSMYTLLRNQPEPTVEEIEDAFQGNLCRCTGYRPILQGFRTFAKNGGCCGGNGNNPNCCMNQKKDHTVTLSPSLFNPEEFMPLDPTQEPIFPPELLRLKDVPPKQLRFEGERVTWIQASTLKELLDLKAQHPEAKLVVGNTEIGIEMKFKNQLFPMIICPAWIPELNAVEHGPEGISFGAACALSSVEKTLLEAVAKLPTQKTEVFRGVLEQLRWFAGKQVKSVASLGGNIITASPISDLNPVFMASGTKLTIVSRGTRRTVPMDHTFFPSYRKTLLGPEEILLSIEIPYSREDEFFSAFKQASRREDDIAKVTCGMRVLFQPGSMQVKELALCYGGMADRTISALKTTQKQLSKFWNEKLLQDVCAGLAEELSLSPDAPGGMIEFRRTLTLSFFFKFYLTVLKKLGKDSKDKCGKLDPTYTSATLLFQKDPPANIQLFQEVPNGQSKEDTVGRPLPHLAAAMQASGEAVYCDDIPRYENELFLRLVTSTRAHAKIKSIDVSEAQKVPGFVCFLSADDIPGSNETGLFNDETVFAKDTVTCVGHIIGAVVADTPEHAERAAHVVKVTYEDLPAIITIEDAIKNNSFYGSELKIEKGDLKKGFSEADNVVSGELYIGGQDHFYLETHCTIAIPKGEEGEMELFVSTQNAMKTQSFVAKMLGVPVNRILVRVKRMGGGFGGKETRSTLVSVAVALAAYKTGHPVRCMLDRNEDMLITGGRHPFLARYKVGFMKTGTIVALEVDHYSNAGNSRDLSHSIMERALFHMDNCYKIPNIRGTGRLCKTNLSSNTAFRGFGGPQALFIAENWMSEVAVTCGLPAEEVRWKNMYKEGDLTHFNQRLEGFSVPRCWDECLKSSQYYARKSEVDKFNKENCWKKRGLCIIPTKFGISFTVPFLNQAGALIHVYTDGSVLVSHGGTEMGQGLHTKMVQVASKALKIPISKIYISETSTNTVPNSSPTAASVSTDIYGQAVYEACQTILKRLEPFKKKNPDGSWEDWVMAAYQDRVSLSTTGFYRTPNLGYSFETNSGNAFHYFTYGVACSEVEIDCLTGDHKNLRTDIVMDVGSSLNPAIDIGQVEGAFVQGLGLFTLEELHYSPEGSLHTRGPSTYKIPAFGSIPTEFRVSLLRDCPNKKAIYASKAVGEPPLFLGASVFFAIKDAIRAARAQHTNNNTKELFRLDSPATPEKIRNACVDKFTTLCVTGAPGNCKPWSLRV
Compound,IC50 [2] [nM],"inhibition in vivo at 1 mg/kg [1, 3] [%]","inhibition in vivo at 1 mg/kg ([1]; po, 2 h) [%]"
"Oc1ncnc2[nH]ncc12 [allopurinol, reference compound]",,,73
"O=C(O)c1sc(-c2cccc(Cl)c2)nc1O [Example 21, 2-(3-chlorophenyl)-4-hydroxy-5-thiazolecarboxylic acid]",720,,
"Cc1nc(-c2ccc(C(=O)N(C)c3ccc(Cl)cc3)cc2)sc1C(=O)O [Example 17, 2-(4-(N-(4-chlorophenyl)-N-methylcarbamoyl)phenyl)-4-methyl-5-thiazolecarboxylic acid]",500,,
"Cc1nc(-c2ccc(C(=O)Nc3ccc(Cl)cc3)cc2)sc1C(=O)O [Example 16, 2-(4-(4-Chlorophenylcarbamoyl)phenyl)-4-methyl-5-thiazolecarboxylic acid]",,,21
"Cc1nc(-c2cccc(C(=O)O)c2)sc1C(=O)O [Example 13, 2-(3-carboxyphenyl)-4-methyl-5-thiazolecarboxylic acid]",320,,
"Cc1nc(-c2cccc([N+](=O)[O-])c2)sc1C(=O)O [Example 3, 4-methyl-2-(3-nitrophenyl)-5-thiazolecarboxylic acid]",14,,
"Cc1nc(-c2ccc([N+](=O)[O-])cc2)sc1C(=O)O [Example 4, 4-methyl-2-(4-nitrophenyl)-5-thiazolecarboxylic acid]",900,,
"Cc1nc(-c2ccc(N(C)C)cc2)sc1C(=O)O [Example 18, 2-(4-(N,N-dimethylamino)phenyl)-4-methyl-5-thiazolecarboxylic acid]",43,22,
"Cc1nc(-c2ccc(OCC(C)C)c(C#N)c2)sc1C(=O)O [Example 77, 2-(3-Cyano-4-isobutyloxyphenyl)-4-methyl-5-thiazolecarboxylic acid]",,,95
"COc1nc(-c2ccc(OC(C)C)cc2)sc1C(=O)O [Example 23, 2-(4-isopropoxyphenyl)-4-methoxy-5-thiazolecarboxylic acid]",130,,
"Cc1nc(-c2ccc(OC(C)C)cc2)sc1C(=O)O [Example 2, 2-(4-isopropoxyphenyl)-4-methyl-5-thiazolecarboxylic acid]",28,,
"Cc1nc(-c2cccc(C(=O)c3ccccc3)c2)sc1C(=O)O [Example 19, 2-(3-Benzoylphenyl)-4-methyl-5-thiazolecarboxylic acid]",12,,
"Cc1nc(-c2ccc(OCc3ccc(Cl)cc3)cc2)sc1C(=O)O [Example 9, 2-(4-(4-Chlorobenzyloxy)phenyl)-4-methyl-5-thiazolecarboxylic acid]",17,,
"Cc1nc(-c2ccc(OCC(C)C)c([N+](=O)[O-])c2)sc1C(=O)OCC(C)C [Example 48, Isobutyl 2-(4-isobutyloxy-3-nitrophenyl)-4-methyl-5-thiazolecarboxylate]",,88,
"Cc1nc(-c2ccc(OCc3ccc(F)cc3)cc2)sc1C(=O)O [Example 10, 2-(4-(4-Fluorobenzyloxy)phenyl)-4-methyl-5-thiazolecarboxylic acid]",31,,
"Cc1nc(-c2ccc(OC(C)C)c(C#N)c2)sc1C(=O)O [Example 76, 2-(3-cyano-4-isopropoxyphenyl)-4-methyl-5-thiazolecarboxylic acid]",,,86
"Cc1nc(-c2ccc(OC(C)C)c([N+](=O)[O-])c2)sc1C(=O)OC(C)C [Example 47, isopropyl 2-(4-isopropoxy-3-nitrophenyl)-4-methyl-5-thiazolecarboxylate]",,92,

# Further lines, with some results ahead:
IC50 [2] [nM],Compound,"inhibition in vivo at 1 mg/kg [1, 3] [%]","inhibition in vivo at 1 mg/kg ([1]; po, 2 h) [%]"
0.7,"Cc1nc(-c2cc(Cl)c(OCCN3CCOCC3)c(Cl)c2)sc1C(=O)O [Example 72, 2-(3,5-Dichloro-4-(2-morpholinoethyloxy)phenyl)-4-methyl-5-thiazolecarboxylic acid]",48,
0.3,"Cc1nc(-c2ccc(SC(C)C)c([N+](=O)[O-])c2)sc1C(=O)O [Example 35, 2-(4-isopropylthio-3-nitrophenyl)-4-methyl-5-thiazolecarboxylic acid]",57,
0.02,"Cc1nc(-c2ccc(Sc3ccc(Cl)cc3)c([N+](=O)[O-])c2)sc1C(=O)O [Example 36, 2-(4-(4-chlrophenyl)thio-3-nitrophenyl)-4-methyl-5thiazolecarboxylic acid]",14,
0.51,"Cc1nc(-c2ccc(OCC(C)C)c(C=O)c2)sc1C(=O)O [Example 86, 2-(3-formyl-4-isobutyloxyphenyl)-4-methyl-5-thiazolecarboxylic acid]",72,
65,"Cc1nc(-c2cc(C(C)(C)C)c(O)c(C(C)(C)C)c2)sc1C(=O)O [Example 29, 2-(3,5-Di-t-butyl-4-hydroxyphenyl)-4-methyl-5-thiazolecarboxylic acid]",,
0.8,"CCC(CC)COc1c(Cl)cc(-c2nc(C)c(C(=O)O)s2)cc1Cl [Example 70, 2-(3,5-Dichloro-4-(2-ethylbutyloxy)phenyl)-4-methyl-5-thiazolecarboxylic acid]",15,
1.5,"Cc1nc(-c2ccc(OCCN3CCOCC3)c(Cl)c2)sc1C(=O)O [Example 56, 2-(3-Chloro-4-(2-morpholinoethyloxy)phenyl)-4-methyl-5-thiazolecarboxylic acid]",50,
2,"CCC(CC)COc1ccc(-c2nc(C)c(C(=O)O)s2)cc1[N+](=O)[O-] [Example 42, 2-(4-(2-Ethylbutyloxy)-3-nitrophenyl)-4-methyl-5-thiazolecarboxylic acid]",75,
1.8,CCN(CC)c1ccc(-c2nc(C)c(C(=O)O)s2)cc1[N+](=O)[O-] [Example 37],74,
0.18,"Cc1nc(-c2ccc(OCC3CCCCC3)c([N+](=O)[O-])c2)sc1C(=O)O [Example 32, 2-(4-Cyclohexylmethyloxy-3-nitrophenyl)-4-methyl-5-thiazolecarboxylic acid]",48,
0.24,"Cc1nc(-c2ccc(N3CCCCC3)c(Cl)c2)sc1C(=O)O [Example 60, 2-(3-Chloro-4-piperidinophenyl)-4-methyl-5-thiazolecarboxylic acid]",55,
2,"Cc1nc(-c2ccc(Sc3ccc(Cl)cc3)c(Cl)c2)sc1C(=O)O [Example 61, 2-(3-Chloro-4-(4-chlorophenylthio)phenyl)-4-methyl-5-thiazolecarboxylic acid]",32,
2.2,"Cc1nc(-c2cc(Cl)c(OC(C)C)c(Cl)c2)sc1C(=O)O [Example 68, 2-(3,5-dichloro-4-isopropoxyphenyl)-4-methyl-5-thiazolecarboxylic acid]",13,
1.2,"Cc1nc(-c2ccc(OCCN3CCCCC3)c(Cl)c2)sc1C(=O)O [Example 57, 2-(3-Chloro-4-(2-piperidinoethyloxy)phenyl)-4-methyl-5-thiazolecarboxylic acid]",15,
2.2,"Cc1nc(-c2ccc(OCCC(C)C)c(C#N)c2)sc1C(=O)O [Example 79, 2-(3-Cyano-4-isopentyloxyphenyl)-4-methyl-5-thiazolecarboxylic acid]",89,
2.1,"Cc1nc(-c2ccc(OCC(C)C)c(Cl)c2)sc1C(=O)O [Example 51, 2-(3-Chloro-4-isobutyloxyphenyl)-4-methyl-5-thiazolecarboxylic acid]",78,
2.7,"Cc1nc(-c2ccc(N3CCCCC3)c(C#N)c2)sc1C(=O)O [Example 82, 2-(3-Cyano-4-piperidinophenyl)-4-methyl-5-thiazolecarboxylic acid]",93,
2.4,"Cc1nc(-c2ccc(N3CCN(C)CC3)c([N+](=O)[O-])c2)sc1C(=O)O [Example 46, 4-methyl-2-(4-(4-methylpiperazinyl)-3-nitrophenyl)-5-thiazolecarboxylic acid]",75,
0.63,"Cc1nc(-c2ccc(N3CCCCC3)c(Br)c2)sc1C(=O)O [Example 66, 2-(3-Bromo-4-piperidinophenyl)-4-methyl-5-thiazolecarboxylic acid]",65,
0.57,"Cc1nc(-c2ccc(OC(C)C)c([N+](=O)[O-])c2)sc1C(=O)O [Example 31, 2-(4-isopropoxy-3-nitrophenyl)-4-methyl-5-thiazolecarboxylic acid]",90,
1.9,"CCOCCOc1ccc(-c2nc(C)c(C(=O)O)s2)cc1C#N [Example 80, 2-(3-CYano-4-(2-ethoxyethyloxy)phenyl)-4-methyl-5-thiazolecarboxylic acid]",87,
300,"CC(=O)c1cc(-c2nc(C)c(C(=O)O)s2)ccc1O [Example 25, 2-(3-Acetyl-4-hydroxyphenyl) -4-methyl-5-thiazolecarboxylic acid]",,
67,"Cc1nc(-c2cc([N+](=O)[O-])ccc2Cl)sc1C(=O)O [Example 24, 2-(2-Chloro-5-nitrophenyl)-4-methyl-5-thiazolecarboxylic acid]",,
42,"Cc1cc(-c2nc(C)c(C(=O)O)s2)cc(C)c1O [Example 30, 2-(3,5-Dimethyl-4-hydroxyphenyl)-4-methyl-5-thiazolecarboxylic acid]",,

# From patent US5614520A, “2-arylthiazole derivatives and pharmaceutical composition thereof” (priority 1990, dated 1997)
